Measured values taken from patent USH1168H, “Inhibitors of protein kinase C activity as protectors against septic shock and reducers of ARDS” (priority 1991, dated 1993).
Entries after “also recorded” stand apart in the source; their conditions may differ.

Experiments:
[1] = system: de-endothelialized rat aortic rings; assay: NE-induced contraction of de-endothelialized rat aortic rings after 16 h incubation with LPS and/or sphingosine; assay type: cell-based; settings: for EC50: Rattus norvegicus, 16 h, de-endothelialized, read-out: EC50 value for NE stimulated contraction (EC50 of the agonist NE)
Experimental: (§1) FIG. 3 is a graph showing contraction to cumulative doses of NE and KCl by rat de-endothelialized aortic rings incubated for 16 hr in combinations of control, LPS, and sphingosine treated media. (Panel A) Contraction to NE by rings incubated in medium only (open circles), medium plus sphingosine (20 μM, closed circles), medium containing LPS (35 ng/ml, open triangles), and medium containing LPS plus sphinogosine (closed triangles). (Panel B) Contraction to KCl by rings incubated and denoted with the same symbols as detailed above. Four rings were prepared from each rat and one ring allocated into each medium formulation to evaluate responses to NE. Rings were similarly prepared to determine responses to KCl. Data is presented as in FIG. 1. N=7 rats apiece for assessment of responses to NE and KCl.
(§2) Tissue preparation and incubation. Male Sprague-Dawley rats (250-350 g, Taconic Farms, Germantown, N.Y.) were used. Rat thoracic aortic rings were prepared and incubated as detailed by McKenna (14). In brief, 4 or 6 rings were prepared from each rat. Care was taken during dissection to maintain the patency of the endothelium. Some aortas were de-endothelialized before sectioning into rings by perfusion with phosphate buffered saline (PBS) containing 1% deoxycholate for 30 sec followed by a PBS and bubble rinse for 5 min. Rings were incubated in DME (Dulbecco's Modified Eagle's medium) supplemented with 1% fetal calf serum, 100 μg/ml streptomycin, and 100 U/ml penicillin. During incubation, the rings were exposed to combinations of LPS (10 or 35 ng/ml), H7 (25 μM), HA1004 (N-(2-guanidinoethyl)-5-isoquinolinesulfonamide) (25 μM), sphingosine (20 μM), or their vehicles. […] Rings used in measures of contractile performance were placed individually in Petri dishes containing 1.2 ml DME and were distributed so that tissue isolated from each aorta was allocated to every combination of treatments within an experiment. […] All tissue isolated from an aorta (six rings) was allocated to a single treatment. The media and rings were rotated gently for 16-18 hr in an incubator at 37° C. under a 95% O2 -5% CO2 atmosphere.
(§3) Measurement of aortic ring contraction. After incubation, rings were mounted in tissue baths, equilibrated, and pre-contracted as previously detailed (14). These procedures required approximately 90 min. Rings were maintained in Krebs Ringer Bicarbonate buffer (KRB, 14). Contractions by six or eight rings were measured simultaneously and recorded on multichannel strip chart recorders. […] Other rings were contracted by withdrawing KRB from the tissue baths and adding increasing volumes of a high KCl KRB (120 mM, made by equimolar substitution of KCl for NaCl) to the baths to yield final KCl concentrations of 10 to 80 mM. All rings were blotted and weighed after experiments were completed.
(§4) Statistics. […] Tests for differences between EC50 values were based on log EC50 values (17). EC50 values were then converted to […] means to allow expression as nanomolar concentrations. Examination of differences among four or six treatment means was by randomized blocks analysis of variance; if significant differences were present, then pairs of means were tested by Student-Newman-Keuls a posteriori tests (18). Paired t-tests were used to assess differences between two treatment means. […] Differences with probabilities of 0.05 or less were accepted as significant. All data are expressed as means±SEM.
The amelioration of LPS-induced vascular contractile dysfunction by inhibition of PKC was further explored in de-endothelialized aortic rings incubated with D-sphingosine. The de-endothelialized rings were incubated with 35 ng/ml LPS instead of 10 ng/ml because such rings are not as sensitive to LPS as tissue with an intact endothelium (14). The effective removal of the endothelium was confirmed by the lack of relaxation to acetylcholine by pre-contracted rings during the conditioning procedure.

[2] = system: de-endothelialized rat aortic rings; assay: KCl-induced contraction of de-endothelialized rat aortic rings after 16 h incubation with LPS and/or sphingosine; assay type: cell-based; settings: for EC50: Rattus norvegicus, 16 h, de-endothelialized, read-out: EC50 value for KCl stimulated contraction (EC50 of the agonist KCl)
Experimental: as §1, §2, §3
as §4, with “means±SEM. […]” for “means±SEM.”

PKC = settings: literature (19, 42); cited from earlier work
[3] = stated without test or source; cited from earlier work
[4] = system: intact endothelium rat aortic rings; assay: NE-induced contraction of intact rat aortic rings after 16 h incubation with LPS and/or PKC inhibitors; assay type: cell-based; settings: for EC50: Rattus norvegicus, 16 h, intact endothelium, read-out: EC50 value for NE stimulated contraction (EC50 of the agonist NE)
Experimental: FIG. 1 is a graph showing contraction to cumulative doses of NE by rat aortic rings incubated for 16 hr in combinations of control, LPS (endotoxin or lipopolysaccharide), H7, and N-(2-guanidinoethyl)-5-isoquinolinesulfonamide (HA1004; a negative control for H7) treated media. (Panel A) Responses by rings incubated in medium only (open circles), medium plus H7 (25 μM, closed circles), medium containing LPS (10 ng/ml, open triangles), and medium containing LPS plus H7 (closed triangles). (Panel B) For clarity in presentation, responses by rings incubated in medium only (open circles) and LPS treated medium (open triangles) are reproduced from Panel A. Additional rings were incubated in medium plus HA1004 (25 μM, closed circles), and medium containing LPS plus HA1004 (closed triangles). Six rings were prepared from each rat and one ring allocated into each medium formulation. […] The curves are the best fit of the data by nonlinear least squares to a polynomial model. N=8 rats.
as §2, §3, §4

[5] = system: intact endothelium rat aortic rings; assay: KCl-induced contraction of intact rat aortic rings after 16 h incubation with LPS and/or PKC inhibitors; assay type: cell-based; settings: for EC50: Rattus norvegicus, 16 h, intact endothelium, read-out: EC50 value for KCl stimulated contraction (EC50 of the agonist KCl)
Experimental: FIG. 2 is a graph showing contraction to cumulative doses of KCl by rat aortic rings incubated for 16 hr in combinations of control, LPS, H7, and HA1004 treated media. (Panel A) Response by rings incubated in medium only (open circles), medium plus H7 (25 μM, closed circles), medium containing LPS (10 ng/ml, open triangles), and medium containing LPS plus H7 (closed triangles). (Panel B) For clarity in presentation, responses by rings incubated in medium only (open circles) and LPS treated medium (open triangles) are reproduced from Panel A. Additional rings were incubated in medium plus HA1004 (25 μM, closed circles), and medium containing LPS plus HA1004 (closed triangles). Rings were prepared and data is presented as described in FIG. 1. N=6 rats.
as §2, §3, §4

cAMP dependent kinase = settings: to an extent comparable to H7 (20); cited from earlier work
cGMP dependent kinase = settings: to an extent comparable to H7 (20); cited from earlier work
[6] = system: myosin light chain kinase; settings: to an extent comparable to H7 (20); cited from earlier work
[7] = LPS-treated media, alone or plus sphingosine 20 μM
[8] = control media (no LPS) plus sphingosine 20 μM
[9] = sphingosine 20 μM plus LPS 35 ng/ml
[10] = LPS 10 ng/ml plus inhibitor 25 μM
[11] = LPS-treated media (10 ng/ml), alone or plus inhibitor 25 μM
[12] = control media (no LPS) plus inhibitor 25 μM
[13] = inhibitor 25 μM by itself, no LPS

## CCCCCCCCCCCCC/C=C/[C@@H](O)[C@@H](N)CO [Sphingosine, 4-trans-sphingenine]
[1]; [7]
  EC50: 124 nM
[1]; [8]
  EC50: 21 nM
[1]; de-endothelialized rings, sphingosine 20 μM
  abrogation/prevention of LPS-induced contractile dysfunction: clearly abrogated the majority of the deleterious effects of LPS on rat aortic tissue contractile function; also recorded: can be prevented
[1]; sphingosine 20 μM only, no LPS
  contraction to NE: suppressed contractions to NE and KCl; also recorded: significantly diminished maximum contractions to NE and KCl
[1]; [9]
  protection against LPS suppression of NE-induced contraction: significantly protected
  sensitivity to NE versus control rings: remained less than that of control rings
[1]; sphingosine 20 μM plus LPS 35 ng/ml, P<0.05
  sensitivity to NE versus rings exposed only to LPS: more sensitive to NE than rings exposed only to LPS
[2]; [7]
  EC50: 27 mM
[2]; [8]
  EC50: 24 ± 2 mM
[2]; sphingosine 20 μM only, no LPS
  contraction to KCl: suppressed contractions to NE and KCl; also recorded: significantly diminished maximum contractions to NE and KCl
[2]; [9]
  protection against LPS suppression of KCl-induced contraction: significantly protected
[2]; sphingosine 20 μM, whether or not LPS was present
  EC50 for KCl versus control rings: not significantly different from control rings
PKC
  inhibition of PKC: capable of inhibiting PKC in vivo and in vitro
[3]
  solubility in water: not soluble in water

## N=C(N)NCCNS(=O)(=O)c1cccc2cnccc12 [HA1004, N-(2-guanidinoethyl)-5-isoquinolinesulfonamide]
[4]; [10]
  EC50 and Emax (sensitivity and maximum contraction) to NE versus control tissue: significantly depressed sensitivity (Table I) and maximum contraction (FIG. 1B) to NE
[4]; [11]
  EC50: 0.00276 mM
[4]; [12]
  EC50: 0.000186 mM
[4]; co-incubation, inhibitor 25 μM, LPS 10 ng/ml
  blocking of LPS effects on contraction to NE: ineffective in blocking the effects of LPS on the tissue
[4]; [13]
  contractile function / sensitivity to NE: significant decrease in sensitivity to NE
  maximum contraction / ring responses to NE: tended to suppress ring responses to NE; also recorded: apparent, but non-significant, diminution in maximum contraction
[5]; LPS 10 ng/ml plus HA1004 25 μM
  protection of maximal contractile performance to KCl: small but significant protection of maximal contractile performance
[5]; [10]
  protection against LPS-induced contractile dysfunction (KCl): did not protect the tissue against LPS-induced diminished sensitivity to KCl
[5]; [11]
  EC50: 49 mM
[5]; [12]
  EC50: 36 ± 3 mM
[5]; [13]
  maximum contraction to KCl: significant increases in maximum contraction; also recorded: augmented contractile responses to KCl
  sensitivity to KCl: no enhancement in sensitivity to KCl
cAMP dependent kinase
  inhibition of cAMP dependent kinase: inhibits
cGMP dependent kinase
  inhibition of cGMP dependent kinase: inhibits
[6]
  inhibition of myosin light chain kinase: inhibits
